# Paper PMC8347481, “Germacranolides from Carpesium divaricatum: Some New Data on Cytotoxic and Anti-Inflammatory Activity” (Molecules, 2021)
# Read-outs that look alike come from different tables or passages of the source.
# Legend:
# HaCaT = assay: LDH cell viability assay, keratinocytes; type: cell-based, human; conditions: Homo sapiens, 24 h, LDH assay
# Protocol: (§1) Normal prostate epithelial cells (PNT2), two prostate cancer cell lines (Du145 and PC3), human keratinocytes (HaCaT), two melanoma cell lines (A375 and HTB140) and two colon cancer cell lines (HT29 and Caco-2) were treated with 3 at a concentration range 1.0–50.0 µg/mL. Viability of the cells was estimated using lactate dehydrogenase (LDH) assay.
# (§2) Cytotoxic activity of 3 was tested on human cancer and normal cells, grouped in three panels: prostate, skin and gastrointestinal. The prostate panel comprised prostate cancer cell lines DU145 (ATCC HTB-81) and PC3 (ATCC CRL-1435) and prostate normal epithelial cells PNT2 (ECACC 95012613). Melanoma cell lines A375 (ATCC CRL-1619) and HTB140 (ATCC Hs 294T) together with human keratinocytes HaCaT (obtained as a kind gift of Prof. Marta Michalik, Department of Cell Biology, Jagiellonian University) were included in the skin panel. Two colon cancer cell lines, namely Caco-2 (ATCC HTB-37) and HT29 (ATCC HTB-38), constituted the gastrointestinal panel. Du145 cells were grown in a modified Eagle’s medium with low (1.0 g/L) glucose concentration; HT29, PC3 and PNT-2 cells were grown in Dulbecco’s modified Eagle’s medium (DMEM) and F12 HAM Nutrient Mixture; Caco-2 cells were grown in modified Eagle’s medium with nonessential amino acids (NEAA); and melanoma cells and keratinocytes were maintained in modified Eagle’s medium with high (4.5 g/L) glucose concentration. The culture media contained antibiotics and 10% fetal bovine serum (FBS). All cultures were maintained at 37 °C in a humidified, 5% CO2-containing atmosphere.
# (§3) The examined compound (3) was diluted in the culture media from freshly made stock solution in MeOH (10 mg/mL) to the working concentrations (from 0 to 50 μg/mL). Cell viability was determined as described previously. […] Then, the culture medium was replaced with the medium containing different concentrations of the assessed compound (1–50 μg/mL). After 24 h of incubation, the viability of the cells was determined using colorimetric lactate dehydrogenase (LDH) assay in comparison to the controls to which corresponding aliquots of MeOH diluted with culture media were added. Cells grown in the medium without the tested compound were used as control I (negative), and the positive control (control II) was obtained by incubation of the cells in the medium containing 1% Triton X-100. LDH released from the damaged cells into the cell culture medium was quantified by measuring the absorbance at 490 nm using a Synergy II Biotek microplate reader. Cytotoxicities of the examined compounds were calculated as follows: ((absorbance of the tested sample−absorbance of control I)/(absorbance of control II−absorbance of control I)) × 100. Results were means of three independent measurements (± SD). Doxorubicin (Ebewe Pharma G.m.b.H., Unterach, Austria) was used as a reference cytostatic drug.
# [1] = LDH cell viability assay, keratinocytes; type: cell-based, human; conditions: human, HaCaT keratinocytes, read-out: Cell Viability (%) ± SD
# Protocol: as §1, §2, §3
# A459 cells = test system: A459 cells; design: method as in PMID 29751555; conditions: cited from earlier work
# HeLa cells = test system: HeLa cells; design: method as in PMID 29751555; conditions: cell density 2 × 10^4, 96 h treatment; cited from earlier work
# PNT2 = assay: LDH cell viability assay, normal prostate epithelial cells; type: cell-based, human; conditions: Homo sapiens, PNT2, 24 h, LDH assay
# Protocol: as §1, §2, §3
# [2] = as above; type: cell-based, human; conditions: human, PNT2 normal prostate epithelial cells, 24 h, read-out: Cell Viability (%) ± SD
# Protocol: as §1, §2, §3
# A375 = assay: LDH cell viability assay, melanoma cells; type: cell-based; conditions: Homo sapiens, A-375; for IC50: A375, 24 h, LDH assay
# Protocol: as §1, §2, §3
# HTB140 = assay: LDH cell viability assay, melanoma cells; type: cell-based; conditions: Homo sapiens; for IC50: HTB140, 24 h, LDH assay
# Protocol: as §1, §2, §3
# PC3 = assay: LDH cell viability assay, prostate cancer cells; type: cell-based; conditions: Homo sapiens, PC-3; for IC50: PC3, 24 h, LDH assay
# Protocol: as §1, §2, §3
# Du145 = assay: LDH cell viability assay, prostate cancer cells; type: cell-based; conditions: Homo sapiens, DU-145; for IC50: Du145, 24 h, LDH assay
# Protocol: as §1, §2, §3
# HepG2 cells = test system: HepG2 cells; design: method as in PMID 29751555; conditions: HepG2, cell density 2 × 10^4, 96 h treatment; cited from earlier work
# [3] = test system: normal and cancer cell lines (prostate, skin, gastrointestinal panels); assay: LDH cytotoxicity, whole panel of normal and cancer cell lines; type: cell-based; conditions: Homo sapiens; 24 h treatment, cell density 1.5 × 10^4; doxorubicin: except PC3 cells; read-out: IC50 range over the cell lines
# Protocol: Cytotoxic activity of 3 was tested on human cancer and normal cells, grouped in three panels: prostate, skin and gastrointestinal. The prostate panel comprised prostate cancer cell lines DU145 (ATCC HTB-81) and PC3 (ATCC CRL-1435) and prostate normal epithelial cells PNT2 (ECACC 95012613). Melanoma cell lines A375 (ATCC CRL-1619) and HTB140 (ATCC Hs 294T) together with human keratinocytes HaCaT (obtained as a kind gift of Prof. Marta Michalik, Department of Cell Biology, Jagiellonian University) were included in the skin panel. Two colon cancer cell lines, namely Caco-2 (ATCC HTB-37) and HT29 (ATCC HTB-38), constituted the gastrointestinal panel. […]
# The examined compound (3) was diluted in the culture media from freshly made stock solution in MeOH (10 mg/mL) to the working concentrations (from 0 to 50 μg/mL). Cell viability was determined as described previously. […] Then, the culture medium was replaced with the medium containing different concentrations of the assessed compound (1–50 μg/mL). After 24 h of incubation, the viability of the cells was determined using colorimetric lactate dehydrogenase (LDH) assay in comparison to the controls to which corresponding aliquots of MeOH diluted with culture media were added. […] LDH released from the damaged cells into the cell culture medium was quantified by measuring the absorbance at 490 nm using a Synergy II Biotek microplate reader. […]
# [4] = value in parentheses, read-out: IC50 (IC50 µM) (converted)
smiles,measurement,setting,value
C=C1C(=O)O[C@H]2[C@H]1[C@@H](O)[C@H](OC(=O)CC(C)C)[C@H](C)CCC(=O)[C@](C)(O)[C@@H]2OC(=O)C(C)C [Compound 3],IC50,HaCaT; read-out: IC50,7.95 ± 0.15 µg/mL
same,IC50,HaCaT; [4],17 µM
same,"viability at 24 h, 1 µg/mL",[1]; 1 µg/mL,86.8 ± 1.7%
same,"viability at 24 h, 3 µg/mL",[1]; 3 µg/mL,74.5 ± 2.29%
same,"viability at 24 h, 5 µg/mL",[1]; 5 µg/mL,64.4 ± 1.33%
same,"viability at 24 h, 10 µg/mL",[1]; 10 µg/mL,30.5 ± 1.32%
same,"viability at 24 h, 20 µg/mL",[1]; 20 µg/mL,0.79 ± 0.72%
same,"viability at 24 h, 30 µg/mL",[1]; 30 µg/mL,0%
same,"viability at 24 h, 50 µg/mL",[1]; 50 µg/mL,0%
same,Cytotoxicity,A459 cells,resistant
same,IC50,HeLa cells,29.4 µM
same,IC50,PNT2; [4],35 µM
same,IC50,PNT2; read-out: IC50,16.4 ± 0.4 µg/mL
same,"viability at 24 h, 1 µg/mL","[2]; PNT2, 1 µg/mL",87.1 ± 1.79%
same,"viability at 24 h, 3 µg/mL","[2]; PNT2, 3 µg/mL",77.2 ± 1.32%
same,"viability at 24 h, 5 µg/mL","[2]; PNT2, 5 µg/mL",69.4 ± 0.97%
same,"viability at 24 h, 10 µg/mL","[2]; PNT2, 10 µg/mL",52.8 ± 2.31%
same,"viability at 24 h, 20 µg/mL","[2]; PNT2, 20 µg/mL",32.5 ± 1.84%
same,"viability at 24 h, 30 µg/mL","[2]; PNT2, 30 µg/mL",21.4 ± 0.45%
same,"viability at 24 h, 50 µg/mL","[2]; PNT2, 50 µg/mL",3.29 ± 1.27%
same,viability at 1 µg/mL,"A375; A375, 1 µg/mL, 24 h, read-out: Cell Viability (%) ± SD",64.2 ± 1.13%
same,viability at 3 µg/mL,"A375; A375, 3 µg/mL, 24 h, read-out: Cell Viability (%) ± SD",55.4 ± 1.44%
same,viability at 5 µg/mL,"A375; A375, 5 µg/mL, 24 h, read-out: Cell Viability (%) ± SD",43.8 ± 1.69%
same,viability at 10 µg/mL,"A375; A375, 10 µg/mL, 24 h, read-out: Cell Viability (%) ± SD",33 ± 2.3%
same,viability at 20 µg/mL,"A375; A375, 20 µg/mL, 24 h, read-out: Cell Viability (%) ± SD",7.09 ± 1.78%
same,viability at 30 µg/mL,"A375; A375, 30 µg/mL, 24 h, read-out: Cell Viability (%) ± SD",0.82 ± 0.65%
same,viability at 50 µg/mL,"A375; A375, 50 µg/mL, 24 h, read-out: Cell Viability (%) ± SD",0%
same,IC50,A375; [4],20.4 µM
same,IC50,A375; read-out: IC50,9.57 ± 0.87 µg/mL
same,viability at 1 µg/mL,"HTB140; HTB140, 1 µg/mL, 24 h, read-out: Cell Viability (%) ± SD",81.4 ± 1.28%
same,viability at 3 µg/mL,"HTB140; HTB140, 3 µg/mL, 24 h, read-out: Cell Viability (%) ± SD",70.8 ± 2.37%
same,viability at 5 µg/mL,"HTB140; HTB140, 5 µg/mL, 24 h, read-out: Cell Viability (%) ± SD",50.9 ± 1.8%
same,viability at 10 µg/mL,"HTB140; HTB140, 10 µg/mL, 24 h, read-out: Cell Viability (%) ± SD",21.5 ± 2.53%
same,viability at 20 µg/mL,"HTB140; HTB140, 20 µg/mL, 24 h, read-out: Cell Viability (%) ± SD",4.1 ± 1.75%
same,viability at 30 µg/mL,"HTB140; HTB140, 30 µg/mL, 24 h, read-out: Cell Viability (%) ± SD",0.59 ± 0.78%
same,viability at 50 µg/mL,"HTB140; HTB140, 50 µg/mL, 24 h, read-out: Cell Viability (%) ± SD",0%
same,IC50,HTB140; [4],13.6 µM
same,IC50,HTB140; read-out: IC50,6.36 ± 0.38 µg/mL
same,viability at 1 µg/mL,"PC3; PC3, 1 µg/mL, 24 h, read-out: Cell Viability (%) ± SD",78.5 ± 1.08%
same,viability at 3 µg/mL,"PC3; PC3, 3 µg/mL, 24 h, read-out: Cell Viability (%) ± SD",65 ± 1.46%
same,viability at 5 µg/mL,"PC3; PC3, 5 µg/mL, 24 h, read-out: Cell Viability (%) ± SD",49.9 ± 2.02%
same,viability at 10 µg/mL,"PC3; PC3, 10 µg/mL, 24 h, read-out: Cell Viability (%) ± SD",37.2 ± 1.27%
same,viability at 20 µg/mL,"PC3; PC3, 20 µg/mL, 24 h, read-out: Cell Viability (%) ± SD",29.2 ± 1.89%
same,viability at 30 µg/mL,"PC3; PC3, 30 µg/mL, 24 h, read-out: Cell Viability (%) ± SD",5.42 ± 2.25%
same,viability at 50 µg/mL,"PC3; PC3, 50 µg/mL, 24 h, read-out: Cell Viability (%) ± SD",0.65 ± 0.33%
same,IC50,PC3; [4],19.1 µM
same,IC50,PC3; read-out: IC50,8.92 ± 1.02 µg/mL
same,viability at 1 µg/mL,"Du145; Du145, 1 µg/mL, 24 h, read-out: Cell Viability (%) ± SD",68.42 ± 0.52%
same,viability at 3 µg/mL,"Du145; Du145, 3 µg/mL, 24 h, read-out: Cell Viability (%) ± SD",56.3 ± 0.97%
same,viability at 5 µg/mL,"Du145; Du145, 5 µg/mL, 24 h, read-out: Cell Viability (%) ± SD",44.8 ± 2.05%
same,viability at 10 µg/mL,"Du145; Du145, 10 µg/mL, 24 h, read-out: Cell Viability (%) ± SD",37.7 ± 2.16%
same,viability at 20 µg/mL,"Du145; Du145, 20 µg/mL, 24 h, read-out: Cell Viability (%) ± SD",23.6 ± 1.54%
same,viability at 30 µg/mL,"Du145; Du145, 30 µg/mL, 24 h, read-out: Cell Viability (%) ± SD",12.5 ± 1.94%
same,viability at 50 µg/mL,"Du145; Du145, 50 µg/mL, 24 h, read-out: Cell Viability (%) ± SD",0.62 ± 0.58%
same,IC50,Du145; [4],10.8 µM
same,IC50,Du145; read-out: IC50,5.08 ± 1.14 µg/mL
same,IC50,HepG2 cells,17 µM
same,IC50,[3],8.3 to 35 µM
